Source: patent publication US20050245465A1, “Compounds for treating Alzheimer's disease and for inhibiting beta-amyloid peptitde production” (priority 2004, published 2005)
“Also recorded” adds a separate entry of the source. Where two headings read alike, the source gives them in different places.

Legend:
[1] = tested on: CHO cells expressing human APP; assay: Secreted Aβ40/Aβ42 ELISA in medium of CHO-APP cells; type: cell-based, Chinese hamster; set-up: key to Aβ42-lowering activity: Aβ42-lowering activity (“Yes”); no profound effects (“No”); non-determined (“ND”); Ginsenosides that affected cell viability are indicated as “Cytotoxic.”; settings: for Aβ42-lowering activity: Tables 1-3; for secretion of Aβ42 (initial screening): heat-processing derived ginsenosides; for production of Aβ42 in cells (summary statement): mammalian cells, in vitro
Description: The CHO cells were treated with the indicated compounds (at 50 μg/ml) for 8 hrs. Aβ42 levels in the medium were measured by ELISA and normalized to intracellular full-length APP.
The potential effects of ginsenosides and their analogues in treating AD were examined. First, a number of ginsenosides were screened based on their effects on Aβ generation. The effects of various ginsenosides on Aβ (e.g., Aβ40 and Aβ42) production was initially accessed by incubating the Chinese hamster ovary (CHO) cells expressing human APP(CHO-APP cells) with each ginsenoside purified from unprocessed ginseng (known as “white ginseng”). These representative ginsenosides included Rb1, Rb2, Rc, Rd, Re, Re, Rg1 and Rg2 and differ in their side chains and sugar moieties.
After 8 hours of incubation, the media were collected and the levels of secreted Aβ40 and Aβ42 were determined by ELISA.
Steaming ginseng at high temperature gave rise to additional ginsenosides with enhanced pharmacological activity, including (20S)Rg3, Rk1 and Rg5 (22-25). Next, the effects of these heat-processing derived ginsenosides (e.g., (20S)Rg3, Rh1, Rh2, Rk1, Rg6, Rg5) on Aβ40 and Aβ42 generation were tested. […] In contrast, Aβ42 levels were not affected by (20R)Rg3, Rh1, and Rg6. Aβ40 levels were not changed by treatment with any of the ginsenosides tested. The potency of Aβ42-lowering activity was highest with Rk1 and (20S)Rg3. […] The secretion of Aβ40 was affected by treatment with Rk1 only at very high concentration (˜100 μM) and cell viability was not affected by treatment of Rk1 under these conditions (up to 100 μM, 8 hour treatment; data not shown). […] Overnight treatment with Rgk351, Rk1, and Rg5 also reduce Aβ42 production in CHO-APP cells (FIG. 12B). […] These studies provide a structure-activity relationship between the chemical structures of ginsenosides and Aβ42-lowering activity, further providing the basis for designing additional Aβ42-lowering analogues as well as for defining a class of compounds that harbor Aβ42-lowering activity.

CHO-APP cells = assay: Mass spectrometric analysis of Aβ species from CHO-APP cells; type: cell-based, Chinese hamster; settings: mass spectrometry, vs DMSO
Description: Note that treatment leads to a decrease in Aβ42 species (1-42), and elevation in both Aβ37 (1-37) and Aβ38 (1-38). Mass spectrometric analysis of Aβ species were performed as previously described (Wang R, Sweeny D, Gandy S E, Sisodia S S. The profile of soluble amyloid β-protein in cultured cell media. J. Bio. Chem. 1996; 271: 31894-31902).

[2] = tested on: primary embryonic cortical neurons derived from Tg2576 transgenic mice; assay: Aβ40 and Aβ42 secretion in primary embryonic cortical neurons; type: cell-based
Description: Treatment of Rk1 and Rg3 decreased the level of secreted Aβ40 and Aβ42.

γ-secretase [3] = assay: Cell-free γ-secretase assay (CHAPSO-solubilized membrane fractions, Aβ ELISA); type: biochemical; settings: for Aβ40 and Aβ42 generation in cell-free γ-secretase assay: dose-response
Description: (A) CHAPSO-solubilized membrane fractions were incubated with recombinant γ-secretase substrates together with the indicated compounds (at 100 μM) and the levels of Aβ42 and Aβ40 were determined by ELISA as described (27-29). (B) Dose-response of Aβ40 and Aβ42-lowering activity of Rk1 and (20S)Rg3 in a cell-free γ-secretase assay.
Next, the inhibitory effects of Rk1 and (20S)Rg3 on Aβ generation in an in vitro γ-secretase assay was studied. […] In contrast, naproxen, an NSAID without Aβ42-lowering activity, had no effects on Aβ42 production (FIG. 15A).

CHO-APP/PS1 cells = assay: Secreted Aβ40/Aβ42 ELISA in CHO-APP/PS1 cells; type: cell-based, Chinese hamster; settings: for potency of Aβ42-reducing activity (order): 50 μM, 8 hrs
Description: (§1) FIG. 10 depicts the effects of native ginsenosides on Aβ42 production. CHO cells stably transfected with human APP695 together with either wild-type (A, CHO-APP/PS1 cells) or ΔE9 FAD mutant (B, CHO-APP/ΔE9PS1 cells) forms of PS1 were used. Cells were treated with the indicated compounds (at 50 μM) for 8 hrs. Levels of secreted Aβ40 and Aβ42 in the medium were determined by ELISA and normalized to intracellular full-length APP. In CHO-APP/PS1 cells, average Aβ amounts in control samples were 320 pM for Aβ40 and 79 pM for Aβ42. The relative levels of Aβ and Aβ42 were normalized to values obtained from non-treated and vehicle-treated cells and are shown as % to control+s.d.). One of three representative experiments are shown.
(§2) CHO-APP/PS1 (A) and CHO-APP/ΔE9PS1 (B) cells were treated with the indicated compounds at 50 μM for 8 hrs and the levels of secreted Aβ40 and Aβ42 were determined as described in FIG. 1. […] The PS1-ΔE9 FAD mutation diminished the Aβ42 response to Rk1 treatment (B).

CHO-APP/ΔE9PS1 cells = assay: Secreted Aβ40/Aβ42 ELISA in CHO-APP/ΔE9PS1 cells; type: cell-based, Chinese hamster; settings: 50 μM, 8 hrs
Description: as §1, §2
Steaming ginseng at high temperature gave rise to additional ginsenosides with enhanced pharmacological activity, including (20S)Rg3, Rk1 and Rg5 (22-25). Next, the effects of these heat-processing derived ginsenosides (e.g., (20S)Rg3, Rh1, Rh2, Rk1, Rg6, Rg5) on Aβ40 and Aβ42 generation were tested. […] In contrast, Aβ42 levels were not affected by (20R)Rg3, Rh1, and Rg6. Aβ40 levels were not changed by treatment with any of the ginsenosides tested. The potency of Aβ42-lowering activity was highest with Rk1 and (20S)Rg3. […] The secretion of Aβ40 was affected by treatment with Rk1 only at very high concentration (˜100 μM) and cell viability was not affected by treatment of Rk1 under these conditions (up to 100 μM, 8 hour treatment; data not shown). […] Overnight treatment with Rgk351, Rk1, and Rg5 also reduce Aβ42 production in CHO-APP cells (FIG. 12B). […]

CHO cells = assay: Cell viability of treated CHO cells; type: cell-based, Chinese hamster; settings: up to 100 μM, 8 hour treatment
Description: as §2
Tables 1-3 Structure of ginsenosides utilized in the study and their effects on Aβ42 generation. They differ at the two or three side chains attached to the common triterpene backbone known as dammarane. The common structure skeleton for each group of ginsenosides is shown in the top panel. Ginsenosides that harbor Aβ42-lowering activity are indicated in the far right column of the tables: Aβ42-lowering activity (“Yes”), no profound effects (“No”), and non-determined (“ND”). Ginsenosides that affected cell viability are indicated as “Cytotoxic.” Abbreviation for carbohydrates are as follows: Glc, D-glucopyranosyl; Ara (pyr), L-arabinopyranosyl; Ara (fur), L-arabinofuranyosyl; Rha, L-rhamnopyranosyl.
Steaming ginseng at high temperature gave rise to additional ginsenosides with enhanced pharmacological activity, including (20S)Rg3, Rk1 and Rg5 (22-25). Next, the effects of these heat-processing derived ginsenosides (e.g., (20S)Rg3, Rh1, Rh2, Rk1, Rg6, Rg5) on Aβ40 and Aβ42 generation were tested. […] In contrast, Aβ42 levels were not affected by (20R)Rg3, Rh1, and Rg6. […]

γ-secretase [4] = assay: Cell-free generation of intracellular domains (AICD, NICD, p75-ICD) in membrane fractions of 293 cells; type: biochemical; settings: membrane fractions from 293 cells overexpressing APP, Notch-ΔE or p75-ΔE
Description: Membrane fractions isolated from 293 cells overexpressing either APP (A), Notch-ΔE (B) or p75-ΔE (C) and incubated in the presence of indicated compounds: Compound E (CpdE, general γ-secretase inhibitor), Rgk351, Rk1 and sulindac sulfide (SS).
Since the effect of Rk1 was rather selective to Aβ42 (but not Aβ40) in a cell-based assay, the question of whether Rk1 affects other γ-secretase-mediated cleavage events, including the generation of AICD resulted from a transmembrane cleavage of APP distal from either Aβ40 or Aβ42 site, and γ-secretase-mediated intramembrane cleavage of Notch1 or p75 neurotrophin receptor (p75NTR) to yield Notch1 or p75NTR intracellular domains (NICD or p75-ICD, respectively) was tested. The cell-free generation of AICD, NICD and p75-ICD was not affected by incubation with Rgk351 or Rk1 (FIG. 5).

APP = assay: Western blot of APP processing in CHO-APP and Neuro2a-APPsw cells; type: cell-based, Chinese hamster and mouse; settings: cell lysates
Description: FIG. 13. depicts an analysis of APP processing after Rk1 treatment. Steady-state levels of full-length APP and APP C-terminal fragments (APP-CTFs) were examined by Western blot analysis using anti-R1 antibody. […] Correlated Aβ42 levels for each sample are shown in the bottom panel.

[5] = cell-free γ-secretase assay, read-out: IC50 for Aβ40
[6] = cell-free γ-secretase assay, read-out: IC50 for Aβ42
[7] = overnight treatment, CHO-APP cells

Row | SMILES | potency of Aβ42-lowering activity (comparison among ginsenosides) [1] | Aβ42-lowering activity [1] | secretion of Aβ42 (initial screening) [1] | production of Aβ42 in cells (summary statement) [1] | Aβ37 (1-37) and Aβ38 (1-38) (CHO-APP cells) | Aβ42 species (1-42) (CHO-APP cells) | level of secreted Aβ40 and Aβ42 [2] | IC50 (γ-secretase [3]; [5]) [µM] | IC50 (γ-secretase [3]; [6]) [µM] | Aβ40 and Aβ42 generation in cell-free γ-secretase assay (γ-secretase [3]) | potency of Aβ42-reducing activity (order) (CHO-APP/PS1 cells) | Aβ42-lowering response in PS1 ΔE9 FAD mutant cells vs PS1 wild-type cells (CHO-APP/ΔE9PS1 cells) | further results
1 | CC(C)=CCC[C@](C)(O)[C@H]1CC[C@]2(C)[C@@H]1[C@H](O)C[C@@H]1[C@@]3(C)CC[C@H](O[C@@H]4O[C@H](CO)[C@@H](O)[C@H](O)[C@H]4O[C@@H]4O[C@H](CO)[C@@H](O)[C@H](O)[C@H]4O)C(C)(C)[C@@H]3CC[C@]12C [(20S)Rg3] | highest | Yes | selectively lowered | lower | elevation | decrease | decreased | 27 ± 4 | 26 ± 7 | inhibits; also recorded: inhibited both Aβ40 and Aβ42 with a similar potency | Rk1>/=(20S)Rg3>Rg5>(20R)Rg3 | diminished | 
2 | C=C(CCC=C(C)C)[C@H]1CC[C@]2(C)[C@@H]1[C@H](O)C[C@@H]1[C@@]3(C)CC[C@H](O[C@@H]4O[C@H](CO)[C@@H](O)[C@H](O)[C@H]4O[C@@H]4O[C@H](CO)[C@@H](O)[C@H](O)[C@H]4O)C(C)(C)[C@@H]3CC[C@]12C [Rk1] | most effective; also recorded: highest | Yes | selectively lowered | lower | elevation | decrease | decreased | 27 ± 3 | 32 ± 5 | inhibits; also recorded: inhibited both Aβ40 and Aβ42 with a similar potency | Rk1>/=(20S)Rg3>Rg5>(20R)Rg3 | diminished | concentration at which secretion of Aβ40 was affected ([1]; 8 hour treatment): ~100 µM; Aβ42 in the medium, dose-dependence ([1]; CHO cells expressing human APP): reduced; also recorded: lower Aβ42 in a dose-dependent manner; generation of Aβ42 (Aβ42 levels in the medium, ELISA, normalized to intracellular full-length APP) ([1]; CHO cells stably transfected with human APP695, 50 μg/ml, 8 hrs): reduce; Aβ42 vs. Aβ40 in the medium (preference) ([1]; CHO-APP cells, normalized to non-treated and vehicle-treated cells): preferentially reduced Aβ42 (vs. Aβ40); also recorded: preferentially lowers Aβ42 (vs. Aβ40); IC50 ([1]; CHO-APP cells, read-out: IC50 of Aβ42 lowering activity): ~20 µM; Aβ40 production [1, 7]: slightly affected; Aβ42 production [1, 7]: reduce; cell viability (CHO cells): not affected; cell-free generation of AICD, NICD and p75-ICD (γ-secretase [4]): does not significantly affect; also recorded: not affected; Aβ42 generation in vitro (γ-secretase [3]; cell-free γ-secretase assay, partially purified γ-secretase complex, 100 μM): inhibit; also recorded: potently inhibited; full-length APP levels (APP): not affected; also recorded: did not affect; APP C-terminal fragments (γ-secretase substrates) (APP; CHO-APP and Neuro2a APPsw cells): increased accumulation; also recorded: up-regulated; Aβ42 levels (CHO-APP/PS1 cells; CHO cells co-expressing human APP with wild-type PS1 or FAD mutant PS1 (delta E9, L286V)): reduced
